From patent US6730694B1, “sPLA2 inhibitors” (Eli Lilly and Company, priority 2003, dated 2004) come the findings set out here.

Series [1] addresses T1, recombinant human secreted phospholipase A2 (Homo sapiens, UniProt P14555).
T1 sequence (P14555 21-144): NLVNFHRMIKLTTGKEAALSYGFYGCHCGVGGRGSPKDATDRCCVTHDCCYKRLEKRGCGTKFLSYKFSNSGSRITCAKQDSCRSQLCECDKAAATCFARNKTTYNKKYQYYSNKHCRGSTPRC
In words: Chromogenic assay of recombinant human secreted phospholipase A2 inhibition. The note with it: diheptanoyl thio-PC substrate, pH 7.5, 40° C., 30 minutes, absorbance at 405 nanometers; read-out: Inhibition of human secreted PLA2 IC50 ± mean deviation (3-4 tests). Type of series: biochemical. From the text:
The following chromogenic assay procedure was used to identify and evaluate inhibitors of recombinant human secreted phospholipase A2. The assay described herein has been adapted for high volume screening using 96 well microtiter plates. A general description of this assay method is found in the article, “Analysis of Human Synovial Fluid Phospholipase A2 on Short Chain Phosphatidylcholine-Mixed Micelles: Development of a Spectrophotometric Assay Suitable for a Microtiterplate Reader”, by Laure J. Reynolds, Lori L. Hughes, and Edward A Dennis, Analytical Biochemistry, 204, pp. 190-197, 1992 (the disclosure of which is incorporated herein by reference):
Adjust pH to 4.5 with acetic acid […]
A measured volume of racemic dipheptanoyl thio PC supplied in chloroform at a concentration of 100 mg/ml is taken to dryness and redissolved in 10 millimolar […]
5. Read absorbance of wells at 405 nanometers with an automatic plate reader.
All compounds were tested in triplicate. […] Compounds initially found to be active were reassayed to confirm their activity and, if sufficiently active, IC50 values were determined. […] In all cases, % inhibition measured at 405 nanometers generated by enzyme reactions containing inhibitors relative to the uninhibited control reactions was determined. […] IC50 values were determined by plotting log concentration versus inhibition values in the range from 10-90% inhibition.

In the case of `CCc1c(C(=O)C(N)=O)c2ccsc2n1Cc1ccccc1` [Example 1, 2-(6-Benzyl-5-ethyl-6H-thieno[2,3-b]pyrrol-4-yl)-2-oxoacetamide], the melting point lay in the range of 169 to 172 °C. Moreover, the IC50 in series [1] stood at 5.5 µM.
